In patent US8394774B2, “Pesticidal compositions” (Dow AgroSciences, LLC., priority 2009, dated 2013):
Where two headings read alike, the source gives them in different places.

Legend:
[1] = system: beet armyworm (BAW; Spodoptera exigua: Lepidoptera); experiment: 128-well diet tray assay on beet armyworm (BAW 50); type: in vivo; conditions: 144 h, read-out: BAW 50
Protocol: (§1) Bioassays on beet armyworm (BAW; Spodoptera exigua: Lepidoptera) were conducted using either a 96-well microtiter plate-based high throughput (HTS) bioassay or a 128-well diet tray assay. The HTS assay is based on a modification of Lewer et al. J. Nat. Prod. 2006, 69, 1506. BAW eggs were placed on top of artificial diet (100 μL) in each well of a 96-well microtiter plate. The diet was pretreated with test compounds (12 μg dissolved in 30 μL of DMSO-acetone-H2O mixture) layered on top of the diet using a liquid handling system and then allowed to dry for several hours. Infested plates were then covered with a layer of sterile cotton batting and the plate lid, and then held in the dark at 29° C. Mortality was recorded at 6 days post-treatment. Each plate had six replicates. The percent mortality was calculated from the average of the six replicates. In the case of the 128-well diet assay, three to five second instar BAW larvae were placed in each well (3 mL) of the diet tray that had been previously filled with 1 mL of artificial diet to which 50 ug/cm^2 of the test compound (dissolved in 50 μL of 90:10 acetone-water mixture) had been applied (to each of eight wells) and then allowed to dry. Trays were covered with a clear self-adhesive cover, and held at 25° C., 14:10 light-dark for six days. Percent mortality was recorded for the larvae in each well; activity in the eight wells was then averaged. In Table 4, under both the BAW HTS and BAW 50 headings, an “A” means that the compound was tested and at least 50 percent mortality was observed whereas, “B” means that either (1) the compound was tested and less than 50 percent mortality was observed or (2) the compound was not tested.

[2] = system: beet armyworm (BAW; Spodoptera exigua: Lepidoptera); experiment: 96-well microtiter plate-based high throughput (HTS) bioassay on beet armyworm (BAW HTS); type: in vivo; conditions: 144 h, read-out: BAW HTS
Protocol: as §1

[3] = percent mortality, 128-well diet assay, 50 ug/cm^2 of test compound on diet, second instar BAW larvae, six days, 25° C., average of eight wells
[4] = percent mortality, 96-well HTS, 12 μg test compound on diet, BAW eggs, 6 days post-treatment, 29° C., average of six replicates

| SMILES | pest or weed control at 50 µg/cm2, 50 µg/cm2 [1] | pest or weed control at 12 µg/well, 12 µg/well [2] | pest or weed control at 50 µg/cm2, 50 µg/cm2 [1, 3] | pest or weed control at 12 µg/well, 12 µg/well [2, 4] |
| --- | --- | --- | --- | --- |
| CCO[C@@H]1[C@@H](OC)[C@H](C)O[C@@H](OC(=O)Nc2ccc(/N=N/c3cccc(OC(F)(F)F)c3)cc2)[C@@H]1OC [Compound 19, [4-(3-trifluoromethoxyphenylazo)-phenyl]-carbamic acid (2S,3R,4R,5S,6S)-3,5-dimethoxy-4-ethoxy-6-methyl-tetrahydropyran-2-yl ester] | > 50% | > 50% | – | – |
| CO[C@@H]1[C@@H](OC)[C@H](C)O[C@@H](O/N=C/c2ccc(/C=C/c3cccc(C(F)(F)F)c3)cc2)[C@@H]1OC [Compound 9, 4-[(E)-2-(3-Trifluoromethylphenyl)-vinyl]-benzaldehyde O-((2S,3R,4R,5S,6S)-3,4,5-trimethoxy-6-methyl-tetrahydropyran-2-yl)-oxime] | – | – | > 50% | < 50% |
| CCO[C@@H]1[C@@H](OC)[C@H](C)O[C@@H](O/N=C/c2ccc(/C=C/c3ccc(OC(F)(F)C(F)(F)F)cc3)cc2)[C@@H]1OC [Compound 7, 4-[(E)-2-(4-Pentafluoroethyloxyphenyl)-vinyl]-benzaldehyde O-((2S,3R,4R,5S,6S)-4-ethoxy-3,5-dimethoxy-6-methyl-tetrahydropyran-2-yl)-oxime] | – | – | > 50% | < 50% |
| CCCO[C@@H]1[C@@H](OC)[C@H](C)O[C@@H](O/N=C/c2ccc(/C=C/c3ccc(OC(F)(F)F)cc3)cc2)[C@@H]1OC [Compound 1, 4-[(E)-2-(4-trifluoromethoxyphenyl)-vinyl]-benzaldehyde O-((2S,3R,4R,5S,6S)-3,5-dimethoxy-6-methyl-4-propoxy-tetrahydropyran-2-yl)-oxime] | – | – | > 50% | > 50% |
| CO[C@@H]1[C@@H](OC)[C@H](C)O[C@@H](O/N=C/c2ccc(/C=C/c3ccc(OC(F)(F)F)cc3)cc2)[C@@H]1OC [Compound 8] | – | – | > 50% | > 50% |
| CCO[C@@H]1[C@@H](OC)[C@H](C)O[C@@H](O/N=C/c2ccc(C#Cc3ccc(C(F)(F)F)cc3)cc2)[C@@H]1OC [Compound 14, 4-(4-Trifluoromethylphenylethynyl)-benzaldehyde O-((2S,3R,4R,5S,6S)-4-ethoxy-3,5-dimethoxy-6-methyl-tetrahydropyran-2-yl)-oxime] | – | – | > 50% | > 50% |
| CCO[C@@H]1[C@@H](OC)[C@H](C)O[C@@H](O/N=C/c2ccc(/C=C/c3ccc(C(C)=O)cc3)cc2)[C@@H]1OC [Compound 4, 4-[(E)-2-(4-Acetyl-phenyl)-vinyl]-benzaldehyde O-((2S,3R,4R,5S,6S)-4-ethoxy-3,5-dimethoxy-6-methyl-tetrahydropyran-2-yl)-oxime] | – | – | < 50% | < 50% |
| CCO[C@@H]1[C@@H](OC)[C@H](C)O[C@@H](O/N=C/c2ccc(/C=C/c3ccc(C(O)(C(F)(F)F)C(F)(F)F)cc3)cc2)[C@@H]1OC [Compound 11, 4-{(E)-2-[4-(2,2,2-Trifluoro-1-hydroxy-1-trifluoromethyl-ethyl)-phenyl]-vinyl}-benzaldehyde O-((2S,3R,4R,5S,6S)-4-ethoxy-3,5-dimethoxy-6-methyl-tetrahydropyran-2-yl)-oxime] | – | – | < 50% | > 50% |
| CCO[C@@H]1[C@@H](OC)[C@H](C)O[C@@H](OC(=O)Nc2ccc(/N=N/c3ccc(OC(F)(F)C(F)(F)F)cc3)cc2)[C@@H]1OC [Compound 22, [4-(4-Pentafluoroethyloxyphenylazo)-phenyl]-carbamic acid (2S,3R,4R,5S,6S)-4-ethoxy-3,5-dimethoxy-6-methyl-tetrahydropyran-2-yl ester] | > 50% | > 50% | – | – |
| CCO[C@@H]1[C@@H](OC)[C@H](C)O[C@@H](O/N=C/c2ccc(C#Cc3ccc(OC(F)(F)F)cc3)cc2)[C@@H]1OC [Compound 13, 4-(4-trifluoromethoxyphenylethynyl)-benzaldehyde O-((2S,3R,4R,5S,6S)-4-ethoxy-3,5-dimethoxy-6-methyl-tetrahydropyran-2-yl)-oxime] | – | – | > 50% | > 50% |
| CCO[C@@H]1[C@@H](OC)[C@H](C)O[C@@H](OC(=O)Nc2ccc(/C=C/c3ccc(C(F)(F)F)cc3)cc2)[C@@H]1OC [Compound 16, {4-[(E)-2-(4-trifluoromethylphenyl)-vinyl]-phenyl}-carbamic acid (2S,3R,4R,5S,6S)-4-ethoxy-3,5-dimethoxy-6-methyl-tetrahydropyran-2-yl ester] | > 50% | > 50% | – | – |
| CCCO[C@@H]1[C@@H](OC)[C@H](C)O[C@@H](OC(=O)Nc2ccc(/C=C/c3ccc(OC(F)(F)C(F)(F)F)cc3)cc2)[C@@H]1OC [Compound 18, {4-[(E)-2-(4-Pentafluoroethyloxyphenyl)-vinyl]-phenyl}-carbamic acid (2S,3R,4R,5S,6S)-4-propoxy-3,5-dimethoxy-6-methyl-tetrahydropyran-2-yl ester] | > 50% | < 50% | – | – |
| CCO[C@@H]1[C@@H](OC)[C@H](C)O[C@@H](O/N=C/c2ccc(/C=C/c3ccc(C(F)(F)C(F)(F)OC(F)(F)C(F)(F)C(F)(F)F)cc3)cc2)[C@@H]1OC [Compound 3] | – | – | < 50% | < 50% |
| CCOc1ccc(/C=C/c2ccc(NC(=O)O[C@@H]3O[C@@H](C)[C@H](OC)[C@@H](OC)[C@H]3OC)cc2)cc1 [Compound 17, {4-[(E)-2-(4-Ethoxyphenyl)-vinyl]-phenyl}-carbamic acid (2S,3R,4R,5S,6S)-3,4,5-tri-methoxy-6-methyl-tetrahydropyran-2-yl ester] | > 50% | < 50% | – | – |
| CCCO[C@@H]1[C@@H](OC)[C@H](C)O[C@@H](O/N=C/c2ccc(/C=C/c3ccc(C(F)(F)F)cc3)cc2)[C@@H]1OC [Compound 10, 4-[(E)-2-(4-Trifluoromethylphenyl)-vinyl]-benzaldehyde O-((2S,3R,4R,5S,6S)-4-propoxy-3,5-dimethoxy-6-methyl-tetrahydropyran-2-yl)-oxime] | – | – | > 50% | > 50% |
| CCO[C@@H]1[C@@H](OC)[C@H](C)O[C@@H](O/N=C/c2ccc(/C=C/c3cccc(C(F)(F)F)c3)cc2)[C@@H]1OC [Compound 6, 4-[(E)-2-(3-Trifluoromethylphenyl)-vinyl]-benzaldehyde O-((2S,3R,4R,5S,6S)-4-ethoxy-3,5-dimethoxy-6-methyl-tetrahydropyran-2-yl)-oxime] | – | – | > 50% | > 50% |
| CO[C@@H]1[C@@H](OC)[C@H](C)O[C@@H](O/N=C/c2ccc(/C=C/c3ccc(C(F)(F)F)cc3)cc2)[C@@H]1OC [Compound 12, 4-[(E)-2-(4-Trifluoromethylphenyl)-vinyl]-benzaldehyde O-((2S,3R,4R,5S,6S)-3,4,5-trimethoxy-6-methyl-tetrahydropyran-2-yl)-oxime] | – | – | > 50% | > 50% |
| CCO[C@@H]1[C@@H](OC)[C@H](C)O[C@@H](OC(=O)Nc2ccc(/N=N/c3ccc(C(F)(F)F)cc3)cc2)[C@@H]1OC [Compound 21, [4-(4-Trifluoromethylphenylazo)-phenyl]-carbamic acid (2S,3R,4R,5S,6S)-4-ethoxy-3,5-dimethoxy-6-methyl-tetrahydropyran-2-yl ester] | < 50% | > 50% | – | – |
| CCO[C@@H]1[C@@H](OC)[C@H](C)O[C@@H](OC(=O)Nc2ccc(/N=N/c3ccc(OC(F)(F)F)cc3)cc2)[C@@H]1OC [Compound 20, [4-(4-Trifluoromethoxy-phenylazo)-phenyl]-carbamic acid (2S,3R,4R,5S,6S)-4-ethoxy-3,5-dimethoxy-6-methyl-tetrahydropyran-2-yl ester] | > 50% | > 50% | – | – |
| CO[C@@H]1[C@@H](OC)[C@H](C)O[C@@H](O/N=C/c2ccc(C#Cc3ccc(C(F)(F)F)cc3)cc2)[C@@H]1OC [Compound 15, 4-(4-Trifluoromethylphenylethynyl)-benzaldehyde O-((3R,4R,5S,6S)-3,4,5-trimethoxy-6-methyl-tetrahydropyran-2-yl)-oxime] | – | – | > 50% | > 50% |
| CCO[C@@H]1[C@@H](OC)[C@H](C)O[C@@H](O/N=C/c2ccc(/C=C/c3ccc(C(F)(F)F)cc3)cc2)[C@@H]1OC [Compound 2, 4-[(E)-2-(4-Trifluoromethylphenyl)-vinyl]-benzaldehyde O-((2S,3R,4R,5S,6S)-4-ethoxy-3,5-dimethoxy-6-methyl-tetrahydropyran-2-yl)-oxime] | – | – | > 50% | > 50% |
